Reference: patent US10519162B2, “6,7-dihydropyrazolo[1,5-α]pyrazin-4(5H)-one compounds and their use as negative allosteric modulators of mGluR2 receptors” (Janssen Pharmaceutica NV, priority 2014, dated 2019)
Like-named read-outs stand apart in the source and are kept apart here.

Columns and labels:
human mGlu2 receptor = molecular target: T1, human mGlu2 receptor (Homo sapiens, UniProt Q14416); experiment: [35S]GTPγS binding assay (mGluR2 negative allosteric modulation, glutamate ~EC80 60 μM); format: biochemical; conditions: for Emax: read-out: GTPγS-hmGluR2 anGT Emax; for IC50: glutamate ~EC80 (60 μM), pIC50 = −log IC50 (M)
T1 construct: expressed in transfected cells; host or cells: CHO cells
T1 sequence (Q14416 19-872): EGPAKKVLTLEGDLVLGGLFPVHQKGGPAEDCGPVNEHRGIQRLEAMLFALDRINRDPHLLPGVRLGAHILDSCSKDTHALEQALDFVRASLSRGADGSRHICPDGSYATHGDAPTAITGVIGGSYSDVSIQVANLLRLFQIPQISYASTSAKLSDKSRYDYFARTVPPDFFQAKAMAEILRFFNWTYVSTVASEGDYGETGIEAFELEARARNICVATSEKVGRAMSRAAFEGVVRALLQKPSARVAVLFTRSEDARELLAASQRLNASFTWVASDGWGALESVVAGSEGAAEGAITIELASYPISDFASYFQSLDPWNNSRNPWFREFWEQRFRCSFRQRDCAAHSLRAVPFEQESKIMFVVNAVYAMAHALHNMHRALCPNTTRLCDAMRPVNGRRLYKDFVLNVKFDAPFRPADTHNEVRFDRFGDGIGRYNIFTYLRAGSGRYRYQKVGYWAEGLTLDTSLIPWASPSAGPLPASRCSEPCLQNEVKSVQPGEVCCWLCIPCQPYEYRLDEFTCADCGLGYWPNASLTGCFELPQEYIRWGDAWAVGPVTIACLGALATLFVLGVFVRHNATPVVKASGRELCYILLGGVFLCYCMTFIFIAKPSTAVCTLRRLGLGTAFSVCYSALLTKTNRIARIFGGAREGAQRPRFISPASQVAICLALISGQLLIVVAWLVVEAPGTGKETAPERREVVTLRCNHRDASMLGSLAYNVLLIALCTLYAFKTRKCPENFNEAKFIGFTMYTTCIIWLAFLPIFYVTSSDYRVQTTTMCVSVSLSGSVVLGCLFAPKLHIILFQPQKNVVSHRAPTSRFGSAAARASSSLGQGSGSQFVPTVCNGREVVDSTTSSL
Procedure: 1) [^35S]GTPγS Binding Assay
[^35S]GTPγS Binding Assay
Total reaction volume was 200 μl. […] Membrane-bound radioactivity was counted in a Topcount.

rats = experiment: Reversal of the effect of the mGluR2 PAM JNJ-42153605-induced inhibition of scopolamine-induced hyperlocomotion (SCOP JNJ-42153605); format: in vivo, rat; conditions: for ED50: Rattus norvegicus, PO (oral route), rats, reversal criterion total distance >1500 cm
Procedure: 2) Reversal of the Effect of the mGluR2 PAM JNJ-42153605-Induced Inhibition of Scopolamine-Induced Hyperlocomotion Apparatus
Motor activity was measured in microprocessor-based motor activity arenas (closed gray PVC cylinders with a height of 39 cm and a diameter of 31 cm). Each arena was placed on an infrared LED (8×8 LEDs) lit box (white PVC squared box; 40×40 cm^2; height 12.5 cm. An infrared-sensitive tube camera and a white light source were mounted to the ceiling above the observation chamber to track the animal. The total distance traveled (cm) was recorded and analyzed using the Noldus Ethovision XT Video Tracking System (Version 7.0.418; Noldus, Wageningen, The Netherlands). The intensity of the light within the activity cages (measured in the centre at the level of the floor) ranged between 4 and 8 LUX.
The rats were pretreated with test compound or vehicle at 60 min before the start of the activity recordings and placed into individual cages. The rats were challenged with JNJ-42153605 (3-(cyclopropylmethyl)-7-(4-phenylpiperidin-1-yl)-8-(trifluoromethyl)[1,2,4]triazolo[4,3-a]pyridine; WO2010/130424; Cid et al. J. Med. Chem. 2012, 55, 8770-8789) (20 mg/kg, i.v.) 30 min before the start of the activity recording combined with scopolamine (0.16 mg/kg, i.v.) just before the start of the activity measurements. Immediately after the injection of scopolamine, the rats were placed into the activity monitors and total distance travelled over the first 30 min was measured.
Solvent-Pretreated Control Rats.
Animals receiving the combination of JNJ-42153605 and scopolamine (n=433) almost always travelled a distance of less than 1500 cm (<1500 cm) (only 2.5% of the control rats travelled a distance of more than 1500 cm (>1500 cm)). On the other hand, animals challenged with scopolamine alone (n=215) always travelled a total distance of more than 1500 cm (>1500 cm) and almost always (in 95.8% of the rats) a distance of more than 4400 cm (>4400 cm). […] For reversal of the inhibitory effect of JNJ-42153605 on the scopolamine-induced hyperlocomotion, the following all-or-none criteria were adopted: (1) reversal: total distance >1500 cm.

[1] = maximal % inhibition relative to the control glutamate response (EC80 glutamate)
[2] = membranes from CHO cells transfected with human mGlu2 receptor, read-out: GTPγS-hmGluR2 anGT pIC50 (converted)
[3] = GTPγS-hmGluR2 anGT pIC50, membranes from CHO cells transfected with human mGlu2 receptor
[4] = historical solvent-pretreated control rats, first 30 min

Structure (SMILES)	melting point [°C]	Emax (human mGlu2 receptor; [1]) [%]	IC50 (human mGlu2 receptor; [2]) [M]	ED50 (rats) [mg/kg]	other results
COc1ccnc(N)c1C(=O)Nc1cnn2c1C(=O)N(c1ccc(C(F)(F)F)cc1)C[C@@H]2C (racemic) [Co. No. 193]	248.21	106	2.88e-09	> 0.63	
C[C@H]1CN(c2ccc(C(F)(F)F)cc2)C(=O)c2c(NC(=O)c3cccnc3NCCO)cnn21 (racemic) [Co. No. 213]	168.55	103	1.02e-09	1.12	
C[C@H]1CN(c2ccc(C(F)(F)F)c(Cl)c2)C(=O)c2c(NC(=O)c3cccnc3NCCO)cnn21 (racemic) [Co. No. 214]		112	5.25e-10	0.32	
C[C@H]1CN(c2ccc(C(F)(F)F)c(Cl)c2)C(=O)c2c(NC(=O)c3ccccc3)cnn21 [Co. No. 2]	161.54	105	1.32e-09	> 2.5	
C[C@H]1CN(c2ccc(Cl)c(Cl)c2)C(=O)c2c(NC(=O)c3ccc(N)nc3)cnn21 [Co. No. 3]	189.94	110	1.62e-09	0.32	
C[C@H]1CN(c2ccc(C(F)F)c(Cl)c2)C(=O)c2c(NC(=O)c3ccc(N)nc3)cnn21 [Co. No. 6]	177	114		> 2.5	
C[C@H]1CN(c2ccc(C(F)(F)F)cc2)C(=O)c2c(NC(=O)c3ccccc3F)cnn21 [Co. No. 11]	241.79	104	2.57e-09	> 2.5	
C[C@H]1CN(c2ccc(C(F)(F)F)cc2)C(=O)c2c(NC(=O)c3cccc(F)c3)cnn21 [Co. No. 14]	161.84	102	2.75e-09	> 2.5	
C[C@H]1CN(c2ccc(Cl)c(OC(F)F)c2)C(=O)c2c(NC(=O)c3ccc(N)nc3)cnn21 [Co. No. 18]		117	4.27e-09	> 2.5	
COc1cccc(C(=O)Nc2cnn3c2C(=O)N(c2ccc(C(F)(F)F)cc2)C[C@@H]3C)n1 [Co. No. 20]	190		4.57e-09	> 2.5	GTPγS-hmGluR2 anGT Emax (human mGlu2 receptor; [1]): 103%
C[C@H]1CN(c2ccc(Cl)cc2)C(=O)c2c(NC(=O)c3ccc(N)nc3)cnn21 [Co. No. 36]		110	8.91e-09	0.5	
Cc1cc(C(=O)Nc2cnn3c2C(=O)N(c2ccc(C(F)(F)F)c(Cl)c2)C[C@@H]3C)cc(Cl)n1 [Co. No. 142]	124.01	109	2.45e-09		
Cc1cc(C(=O)Nc2cnn3c2C(=O)N(c2ccc(C(F)(F)F)c(Cl)c2)C[C@@H]3C)c(C)cn1 [Co. No. 158]	130.79	112	4.07e-09		
CC(=O)Nc1ccc(C(=O)Nc2cnn3c2C(=O)N(c2ccc(C(F)(F)F)cc2)C[C@@H]3C)cn1 [Co. No. 159, 6-acetamido-N-[(7S)-7-methyl-4-oxo-5-[4-(trifluoromethyl)phenyl]-6,7-dihydropyrazolo[1,5-a]pyrazin-3-yl]pyridine-3-carboxamide]	265	106	6.03e-09		
Cc1cc(N)ncc1C(=O)Nc1cnn2c1C(=O)N(c1ccc(C(F)(F)F)c(Cl)c1)C[C@@H]2C [Co. No. 164]	233.32	108	1.35e-09		
Cc1cc(C(=O)Nc2cnn3c2C(=O)N(c2ccc(C(F)(F)F)c(Cl)c2)C[C@@H]3C)cc(N)n1 [Co. No. 174]	192.47	106	1.66e-09		
C[C@H]1CN(c2ccc(C(F)(F)F)cc2)C(=O)c2c(NC(=O)C3CCOCC3)cnn21 [Co. No. 186]	142.94	106	7.08e-07		
O=C(Nc1cnn2c1C(=O)N(c1ccc(C(F)(F)F)cc1)CC2)c1cccnc1 [Co. No. 190]	162.12	102	1.07e-06		
C[C@H]1CN(c2ccc(OC(F)(F)F)c(Cl)c2)C(=O)c2c(NC(=O)c3cccnc3)cnn21 [Co. No. 195]	181.21	105	1.58e-09		
Cc1cnc(N)c(C(=O)Nc2cnn3c2C(=O)N(c2ccc(Cl)cc2)C[C@@H]3C)c1 [Co. No. 201]		108	4.9e-09	> 0.63	
C[C@H]1CN(c2ccc(C(F)(F)F)cc2)C(=O)c2c(NC(=O)c3cccc(S(=O)(=O)F)c3)cnn21 [Co. No. 217]	161.88				IC50 (human mGlu2 receptor; [3]): 1.07e-08 M; Emax (human mGlu2 receptor): 110%
C[C@H]1CN(c2ccc(C(F)(F)F)cc2)C(=O)c2c(NC(=O)c3ccc(S(=O)(=O)F)cc3)cnn21 [Co. No. 218]	163.64				IC50 (human mGlu2 receptor; [3]): 4.37e-08 M; Emax (human mGlu2 receptor): 112%
CN1[C@@H]2C[C@@H](OC(=O)[C@H](CO)c3ccccc3)C[C@H]1[C@@H]1O[C@@H]12 [Scopolamine, scopolamine, reference compound]					Rats with total distance >1500 cm (%) (rats; [4]): 100%; Rats with total distance >4400 cm (%) (rats; [4]): 95.8%; Total distance travelled, median (cm) (rats; historical solvent-pretreated control rats, first 30 min, scopolamine 0.16 mg/kg i.v., JNJ-42153605 20 mg/kg i.v.): 7246 cm

More lines, main results first:

melting point [°C]	Emax (human mGlu2 receptor; [1]) [%]	IC50 (human mGlu2 receptor; [2]) [M]	Structure (SMILES)	ED50 (rats) [mg/kg]	other results
177.39	110	2.69e-08	Cc1ccnc(N)c1C(=O)Nc1cnn2c1C(=O)N(c1ccc(C(F)(F)F)cc1)C[C@@H]2C (racemic) [Co. No. 192]	> 0.63	
213.94	111	3.24e-09	C[C@H]1CN(c2ccc(C(F)(F)F)cc2)C(=O)c2c(NC(=O)c3nccs3)cnn21 [Co. No. 15]	> 2.5	
201.48	108	3.39e-09	C[C@H]1CN(c2ccc(C(F)(F)F)cc2)C(=O)c2c(NC(=O)c3ccccc3)cnn21 [Co. No. 16]	> 2.5	
240.46	115	2.04e-09	C[C@H]1CN(c2ccc(C(F)(F)F)cc2)C(=O)c2c(NC(=O)c3cccc(O)c3)cnn21 [Co. No. 144]		
182.69		2.4e-08	Cc1nccc(C(=O)Nc2cnn3c2C(=O)N(c2ccc(C(F)(F)F)cc2)C[C@@H]3C)c1C [Co. No. 156]		GTPγS-hmGluR2 anGT Emax (human mGlu2 receptor; [1]): 113%
142.82	101	6.31e-07	CC(=O)Nc1cnn2c1C(=O)N(c1ccc(C(F)(F)F)cc1)C[C@@H]2C [Co. No. 160, N-[(7S)-7-methyl-4-oxo-5-[4-(trifluoromethyl)phenyl]-6,7-dihydropyrazolo[1,5-a]pyrazin-3-yl]acetamide]		
196.39	107	2.75e-09	Cc1cc(C(=O)Nc2cnn3c2C(=O)N(c2ccc(C(F)(F)F)cc2)C[C@@H]3C)cc(N)n1 [Co. No. 162]		
226.06	106	2.57e-09	Cc1cc(N)ncc1C(=O)Nc1cnn2c1C(=O)N(c1ccc(C(F)(F)F)cc1)C[C@@H]2C [Co. No. 163, 6-Amino-4-methyl-N-[(7S)-7-methyl-4-oxo-5-[4-(trifluoromethyl)phenyl]-6,7-dihydropyrazolo[1,5-a]pyrazin-3-yl]pyridine-3-carboxamide]		
265.47	107	4.37e-08	Cc1cc(C(=O)Nc2cnn3c2C(=O)N(c2ccc(C(F)(F)F)cc2)C[C@@H]3C)nc(N)n1 [Co. No. 180]		
152.2	105	2.45e-07	C[C@@H]1CN(c2ccc(C(F)(F)F)cc2)C(=O)c2c(NC(=O)c3cccnc3)cnn21 [Co. No. 188]		
183.54	107	3.31e-09	C[C@H]1CN(c2ccc(C(F)(F)F)cc2)C(=O)c2c(NC(=O)c3cncc(F)n3)cnn21 [Co. No. 219, 6-fluoro-N-[(7S)-7-methyl-4-oxo-5-[4-(trifluoromethyl)phenyl]-6,7-dihydropyrazolo[1,5-a]pyrazin-3-yl]pyrazine-2-carboxamide]		
